The values below come from patent US6706740B2, “Fungicidal heterocyclic aromatic amides and their compositions, methods of use and preparation” (Dow AgroSciences LLC, priority 1999, dated 2004).

Like-named read-outs stand apart in the source and are kept apart here.

Data set [1] has as its system Puccinia recondita—PUCCRT. The data set is described as follows: Brown Rust of Wheat, in vivo whole plant, 24 Hour Protectant. Particulars: control of fungal infection vs untreated plants; for pest or weed control at 100 ppm: Puccinia, read-out: PUCCRT in vivo 1 Day Protectant.
For data set [2], the system named is Septoria tritici—SEPTTR. Nature of the data set: Leaf Blotch of Wheat, in vivo whole plant, 24 Hour Protectant. The note with it: Zymoseptoria tritici, 24 h, control of fungal infection vs untreated plants, read-out: SEPTTR in vivo 1 Day Protectant.
Data set [3] has as its system Mycosphaerella graminicola (Septoria tritici—SEPTTR). Nature of the data set: In vitro fungal growth inhibition, Mycosphaerella graminicola (SEPTTR). Format: cell-based. Particulars: Zymoseptoria tritici, read-out: SEPTTR in vitro Growth Inhibition.
The test system of data set [4] is Erysiphe graminis—ERYSGT. The data set is described as follows: Powdery Mildew of Wheat, in vivo whole plant, 24 Hour Protectant. The note with it: Erysiphe, control of fungal infection vs untreated plants, read-out: ERYSGT in vivo 1 Day Protectant.
The subject of data set [5] is Stagonospora nodorum (Leptosphaeria nodorum—LEPTNO). The data set is described as follows: In vitro fungal growth inhibition, Stagonospora nodorum (LEPTNO). Particulars: Leptosphaeria, read-out: LEPTNO in vitro Growth Inhibition. Type of data set: cell-based.
The test system of data set [6] is Rhizoctonia solani (RHIZSO). Nature of the data set: microbe, parasite or virus in culture. The note with it: Rhizoctonia solani, read-out: RHIZSO in vitro Growth Inhibition. Type of data set: cell-based.
The test system of data set [7] is Phytophthora infestans—PHYTIN. The data set is described as follows: whole plant or invertebrate. Format: in vivo. Particulars: Phytophthora, in Solanum lycopersicum, 24 h, read-out: PHYTIN in vivo 1 Day Protectant.
Data set [8] concerns Ustilago maydis (USTIMA). Nature of the data set: microbe, parasite or virus in culture. The note with it: Mycosarcoma maydis, read-out: USTIMA in vitro Growth Inhibition. Type of data set: cell-based.
The test system of data set [9] is Leptosphaeria nodorum—LEPTNO. Nature of the data set: Glume Blotch of Wheat, in vivo whole plant, 24 Hour Protectant. The note with it: control of fungal infection vs untreated plants; for pest or weed control at 100 ppm: Leptosphaeria, read-out: LEPTNO in vivo 1 Day Protectant.
For data set [10], the system named is Phytophthora infestans (PHYTIN). The data set is described as follows: microbe, parasite or virus in culture. Format: cell-based. The note with it: Phytophthora infestans, read-out: PHYTIN in vitro Growth Inhibition.
For data set [11], the system named is Magnaporthe grisea (Pyricularia oryzae—PYRIOR). The data set is described as follows: microbe, parasite or virus in culture. The note with it: Pyricularia oryzae, read-out: PYRIOR in vitro Growth Inhibition. Type of data set: cell-based.
The mark [12] stands for this setting: wheat plants sprayed at 100 ppm, inoculated after 24 hours.
Where [13] appears, read: 100 ppm spray, 24 hour protectant, wheat.

One may read the inhibition as the percentage by which the read-out fell short of the control. For orientation: melting point means the temperature of the solid-liquid transition. `COc1cccc(CNC(=O)c2cccnc2O)c1OC` [Compound 516] registered a melting point of 193 to 194 °C. In data set [1] (setting [12]), the pest or weed control at 100 ppm was less than 25%. Also, the pest or weed control at 100 ppm in data set [2] (setting [12]) is less than 25%. For the same compound, the inhibition at 25 ppm in [3] (25 ppm in the growth medium) was less than 80%. Besides, the pest or weed control at 100 ppm in data set [4] (setting [12]) was less than 25%. For the same compound, the inhibition at 25 ppm in data set [5] (25 ppm in the growth medium) was less than 80%. The inhibition at 25 ppm in data set [6] is less than 80%. Moreover, the pest or weed control at 100 ppm in data set [7] is less than 25%. Also, the inhibition at 25 ppm in data set [8] is less than 80%. Also, the pest or weed control at 100 ppm in data set [9] (setting [12]) is less than 25%. Also, the inhibition at 25 ppm in data set [10] was less than 80%. In data set [11], the inhibition at 25 ppm is less than 80%.
For `COc1nc(O)c(C(=O)N[C@H]2COC(=O)[C@H](Cc3ccccc3)[C@@H](OC(=O)C(C)C)[C@H](C)OC2=O)nc1Cl` [Compound 537], the melting point lay within 84 to 86 °C. The pest or weed control at 100 ppm in data set [1] (setting [12]) is 25 to 74%. Also, the pest or weed control at 100 ppm in data set [2] (setting [12]) is 25 to 74%. Also, in [3] (25 ppm in the growth medium), the inhibition at 25 ppm is less than 80%. The pest or weed control at 100 ppm in [4] (setting [12]) was less than 25%. For the same compound, the inhibition at 25 ppm in [5] (25 ppm in the growth medium) was less than 80%. In addition, the inhibition at 25 ppm in data set [6] is less than 80%. In data set [7], the pest or weed control at 100 ppm is less than 25%. Besides, the inhibition at 25 ppm in [8] is less than 80%. Besides, the “LEPTNO in vivo 1 Day Protectant” value in data set [9] (setting [12]) is recorded as “+ +”. In data set [10], the inhibition at 25 ppm is less than 80%. For the same compound, the inhibition at 25 ppm in data set [11] was less than 80%.
In turn, `CSc1ccnc(C(=O)NC2COC(=O)[C@H](Cc3ccccc3)[C@@H](OC(=O)C(C)C)[C@H](C)OC2=O)c1O` (stereo partly drawn) [Compound 478] gave a melting point of 184 to 187 °C. In addition, the pest or weed control at 100 ppm in data set [1] (setting [12]) was 25 to 74%. Moreover, the pest or weed control at 100 ppm in data set [2] (setting [12]) lay in the range of 25 to 74%. In [3] (25 ppm in the growth medium), the inhibition at 25 ppm is less than 80%. Also, the pest or weed control at 100 ppm in data set [4] (setting [12]) is less than 25%. Also, the inhibition at 25 ppm in data set [5] (25 ppm in the growth medium) is less than 80%. Further, the inhibition at 25 ppm in [6] is less than 80%. Further, the pest or weed control at 100 ppm in data set [7] is less than 25%. Further, the inhibition at 25 ppm in data set [8] was less than 80%. Further, in [9] (setting [12]), the pest or weed control at 100 ppm lay within 25 to 74%. Moreover, the inhibition at 25 ppm in data set [10] is less than 80%. Moreover, in data set [11], the inhibition at 25 ppm was less than 80%.
`COc1ccnc(C(=O)NC2CCc3ccccc3C2=O)c1O` (stereo not drawn) [Compound 285] gave a melting point of 174 to 179 °C. The pest or weed control at 100 ppm in [1] (setting [13]) is less than 25%. For the same compound, the pest or weed control at 100 ppm in [2] (setting [13]) fell in the range of 25 to 74%. For the same compound, the inhibition at 25 ppm in [3] (25 ppm in growth medium) is less than 80%. The pest or weed control at 100 ppm in data set [4] (setting [13]) is less than 25%. Besides, in data set [5] (25 ppm in growth medium), the inhibition at 25 ppm was less than 80%. In [6], the inhibition at 25 ppm is greater than 80%. Moreover, the pest or weed control at 100 ppm in data set [7] was less than 25%. Moreover, the inhibition at 25 ppm in data set [8] is less than 80%. In data set [9] (setting [13]), the pest or weed control at 100 ppm was 25 to 74%. Also, the inhibition at 25 ppm in [10] is less than 80%. Moreover, the inhibition at 25 ppm in data set [11] is less than 80%.
Turning to `COc1cc(NC(=O)c2ncccc2O)cc(OC)c1` [Compound 216], the melting point lay within 127 to 129 °C. Moreover, the pest or weed control at 100 ppm in [1] (setting [13]) was less than 25%. Also, in data set [2] (setting [13]), the pest or weed control at 100 ppm is less than 25%. For the same compound, the inhibition at 25 ppm in [3] (25 ppm in growth medium) is less than 80%. Also, in data set [4] (setting [13]), the pest or weed control at 100 ppm was less than 25%. Besides, the inhibition at 25 ppm in data set [5] (25 ppm in growth medium) is less than 80%. The inhibition at 25 ppm in data set [6] is less than 80%. The pest or weed control at 100 ppm in [7] was less than 25%. Moreover, the inhibition at 25 ppm in data set [8] was less than 80%. In [9] (setting [13]), the pest or weed control at 100 ppm is less than 25%. Besides, in data set [10], the inhibition at 25 ppm was less than 80%. Also, in data set [11], the inhibition at 25 ppm is greater than 80%.
Take `Cc1ccnc(C(=O)NC2COC(=O)[C@H](Cc3ccccc3)[C@@H](OC(=O)C(C)C)[C@H](C)OC2=O)c1O` (stereo partly drawn) [Compound 237]: the melting point is 122 to 134 °C. In data set [1] (setting [13]), the “PUCCRT in vivo 1 Day Protectant” value was “+ +”. The pest or weed control at 100 ppm in data set [2] (setting [13]) is 25 to 74%. For the same compound, the inhibition at 25 ppm in [3] (25 ppm in growth medium) was less than 80%. For the same compound, the pest or weed control at 100 ppm in data set [4] (setting [13]) is less than 25%. Further, the inhibition at 25 ppm in data set [5] (25 ppm in growth medium) was less than 80%. Further, the inhibition at 25 ppm in data set [6] is less than 80%. For the same compound, the pest or weed control at 100 ppm in data set [7] was less than 25%. In data set [8], the inhibition at 25 ppm is less than 80%. Moreover, the pest or weed control at 100 ppm in [9] (setting [13]) lay in the range of 25 to 74%. Further, the inhibition at 25 ppm in [10] is less than 80%. Further, in data set [11], the inhibition at 25 ppm is less than 80%.
